Data: US20220016215A1, “GIP RECEPTOR AGONIST PEPTIDE COMPOUNDS AND USES THEREOF” (TAKEDA PHAARMACEUTICAL COMPANY LIMITED, priority 2018, published 2022)
Where two headings read alike, the source gives them in different places.

How the values were obtained:
human GIPR = molecular target: T1, human GIPR (Homo sapiens, UniProt P48546); test: Agonist activity on human GIPR, CRE-luciferase reporter assay (increase in intracellular cAMP as indicator); type: cell-based; details: for Selectivity Ratio (B/A): GLP1R EC50 / GIPR EC50
T1 construct: expressed in transfected cells
T1 sequence (P48546 22-466): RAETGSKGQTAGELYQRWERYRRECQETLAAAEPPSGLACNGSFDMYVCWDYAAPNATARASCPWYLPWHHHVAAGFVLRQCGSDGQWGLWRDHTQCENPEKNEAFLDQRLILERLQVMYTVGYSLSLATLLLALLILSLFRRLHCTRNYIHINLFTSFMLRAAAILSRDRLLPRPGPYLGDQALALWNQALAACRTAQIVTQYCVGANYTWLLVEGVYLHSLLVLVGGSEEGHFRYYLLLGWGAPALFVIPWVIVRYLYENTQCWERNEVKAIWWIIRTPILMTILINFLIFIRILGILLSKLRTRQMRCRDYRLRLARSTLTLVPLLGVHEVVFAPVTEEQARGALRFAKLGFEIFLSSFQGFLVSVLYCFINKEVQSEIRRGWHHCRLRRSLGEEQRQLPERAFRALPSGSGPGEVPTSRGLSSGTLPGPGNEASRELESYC
Procedure, shortened: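 CHO-K1 cells carrying CRE-luciferase and stably expressing human GIPR, 5×10^3 cells/well, exposed to compound for 4 hours at 37° C.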

[1] = tested on: Y2R agonist-induced emesis in dogs; type: in vivo, dog; details: 30 nmol/kg s.c.
Protocol: Example 8 PYY-1119-Induced Vomiting in Dogs
Emetic episodes were counted for 2 hours after administration (by blinded analysis).
Emetic episodes were counted for 2 hours after Y2R agonist administration (by blinded analysis).

human GLP-1R = human GLP-1R (Homo sapiens, UniProt P43220); test: Agonist activity on human GLP-1R, CRE-luciferase reporter assay (increase in intracellular cAMP as indicator); type: cell-based; set-up: expressed in transfected cells; details: hGLP-1R/CRE-luc/CHO-K1 cells, 4 h incubation
human GLP-1R, sequence (P43220 24-463): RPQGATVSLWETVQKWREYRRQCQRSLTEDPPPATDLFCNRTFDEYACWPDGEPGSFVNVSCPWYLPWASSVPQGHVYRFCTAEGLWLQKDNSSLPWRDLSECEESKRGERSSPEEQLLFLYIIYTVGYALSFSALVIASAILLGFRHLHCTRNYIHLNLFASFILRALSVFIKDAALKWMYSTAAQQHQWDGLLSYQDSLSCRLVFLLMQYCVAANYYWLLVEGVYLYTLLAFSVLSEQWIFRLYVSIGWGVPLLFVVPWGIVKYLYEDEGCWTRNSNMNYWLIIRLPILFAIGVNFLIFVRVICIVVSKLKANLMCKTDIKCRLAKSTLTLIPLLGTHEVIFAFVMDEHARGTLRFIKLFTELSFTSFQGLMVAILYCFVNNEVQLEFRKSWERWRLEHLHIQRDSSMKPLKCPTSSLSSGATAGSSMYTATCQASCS
Text: The human GIPR gene having an identical sequence to Genebank Accession No. U39231 is cloned into a pMSRα-neo vector to prepare hGIPR/pMSRα-neo.
(3) Construction of Reporter Plasmid
Four copies of a cAMP responsive sequence and a Zeocin resistance gene are transferred to pGL3(R2.2)-Basic Vector (Promega) to construct a Cre-luc(Zeo) reporter plasmid.
(5) Construction of Expression Plasmid of Human GLP-1R Gene
The human GLP-1R gene having an identical sequence to Genebank Accession No. NM_002062 is cloned into a pIRESneo3 vector to prepare hGLP-1/pIRESneo3.
(6) Transfer of Human GLP-1R Gene and Reporter Plasmid to CHO-K1 Cell and Obtaining of Expressing Cell
The Cre-luc (Zeo) obtained in (3) and the plasmid hGLP-1/pIRESneo3 obtained in (5) transferred to the CHO-K1 cell to obtain a transformant. Subsequently, the cell line inducing the luciferase expression, hGLP-1R/CRE-luc/CHO-K1 cell, is selected from the obtained transformant by adding GLP-1.
The GLP-1R agonist activity is assayed in the same manner as above using the hGLP-1R/CRE-luc/CHO-K1 cell.

[2] = female beagle dogs, Y2R agonist 10 μg/kg s.c. at 8 hours postdose
[3] = female beagle dogs, Y2R agonist 10 μg/kg s.c. at 8 hours postdose, counted for 2 hours

Selectivity Ratio (B/A) (human GIPR) | EC50 (human GLP-1R; read-out: GLP1R EC50 nM (B)) [nM] | EC50 (human GLP-1R; read-out: GLP1R pEC50 (converted)) [nM] | EC50 (human GIPR; hGIPR/CRE-LUC/CHO-K1 cells, 4 h incubation, read-out: GIPR pEC50 (converted)) [nM] | Compound | Anti-emetic effects in animal models of emesis (dogs) (in words) ([1]; dogs, Tables 16 and 17) | Duration of emesis [1, 2] [min] | Latency period of emesis [1, 2] [min] | No. of animals that did not vomit [1, 3] | No. of emetic episodes [1, 3] | No. of emetic episodes, % Inhibition ([1]; female beagle dogs, Y2R agonist at 8 hours postdose, decreased ratio of mean emetic episodes vs vehicle group)
>100,000 |  |  |  | YAibEGTFISDYSIALDK(Lys-(ethylene glycol)2-C15 diacid)HQQDFVNWLLAQRG-OH [Compound 26] | significant anti-emetic effects | 0.0 ± 0.0 | 92.3 ± 55.5 | 3 | 0.3 ± 0.5 | [96.6%]
20 | < 0.02 | 0.017 | 0.001 | CC[C@H](C)[C@H](NC(=O)[C@H](CC(C)C)NC(=O)[C@H](Cc1c[nH]c2ccccc12)NC(=O)[C@H](CCC(N)=O)NC(=O)[C@@H](NC(=O)[C@H](Cc1ccccc1)NC(=O)[C@H](C)NC(=O)[C@H](CCCNC(=N)N)NC(=O)[C@H](CCC(N)=O)NC(=O)[C@H](C)NC(=O)[C@@H](NC(=O)[C@H](CCCCN)NC(=O)[C@H](CC(=O)O)NC(=O)[C@H](CC(C)C)NC(=O)C(C)(C)NC(=O)[C@@H](NC(=O)[C@H](CO)NC(=O)[C@H](Cc1ccc(O)cc1)NC(=O)[C@H](CC(=O)O)NC(=O)[C@H](CO)NC(=O)[C@@H](NC(=O)[C@H](Cc1ccccc1)NC(=O)[C@@H](NC(=O)CNC(=O)[C@H](CCC(=O)O)NC(=O)C(C)(C)NC(=O)[C@@H](N)Cc1ccc(O)cc1)[C@@H](C)O)[C@@H](C)O)[C@@H](C)CC)[C@@H](C)CC)C(C)C)C(=O)N[C@@H](C)C(=O)NC(C)(C)C(=O)N[C@@H](CCCCN)C(=O)NCC(=O)N[C@@H](CCCCN)C(=O)N[C@@H](CCCCN)C(=O)N[C@@H](CCC(N)=O)C(=O)N[C@@H](CCC(=O)O)C(=O)N[C@@H](Cc1c[nH]c2ccccc12)C(=O)N[C@@H](CCCCN)C(=O)N[C@@H](Cc1c[nH]cn1)C(=O)N[C@@H](CCC(N)=O)C(=O)N[C@H](C(=O)N[C@H](C(=O)N[C@@H](CCC(N)=O)C(=O)N[C@@H](CCCCNC(C)=O)C(N)=O)[C@@H](C)O)[C@@H](C)CC [Compound 16] |  |  |  |  |  | 
